≈ marks a conversion by molar mass, not a printed value. Calls of active or inactive are those of the source. No cut-off for these calls is given here.
What was measured:
[1] = Metabolic stability in CD-1 mouse liver microsomes assessed as intrinsic clearance at 1 uM measured upt0 30 mins by LC-MS/MS analysis; format: ADME, Microsome; settings: 0.5 h
[2] = AUC (0 to 10 hrs) in SCID mouse at 15 mg/kg, po measured upto 10 hrs by LC/MS-MS analysis; format: ADME, organism-based; design: dose 15 mg/kg, time < 10 hr, route oral; settings: in vivo
[3] = Protein binding in SCID mouse plasma assessed as unbound fraction; format: ADME, cell-free
[4] = Cmax in SCID mouse at 50 mg/kg, po measured upto 24 hrs by LC/MS-MS analysis; format: ADME, organism-based; design: dose 50 mg/kg, route oral; settings: in vivo
[5] = AUC (0 to 10 hrs) in SCID mouse at 5 mg/kg, po measured upto 10 hrs by LC/MS-MS analysis; format: ADME, organism-based; design: time < 10 hr, dose 5 mg/kg, route oral; settings: in vivo
Mus musculus [6] = assay: In vivo inhibition of BCL6 in SCID mouse xenografted with human OCI-LY1 cells assessed as reduction in BCL6 level at 15 mg/kg, po measured upto 10 hrs by Western blot analysis; format: functional, organism-based
OCI-Ly3 = assay: Antiproliferative activity agianst human OCI-LY3 cells assessed as growth inhibition incubated for 14 days by CellTiter Glo reagent based assay
in vivo [7] = settings: SCID, mouse, po, 15 mg/kg
[8] = AUC (0 to 10) hrs in SCID mouse at 50 mg/kg, po measured upto 10 hrs by LC/MS-MS analysis; format: ADME, organism-based; design: dose 50 mg/kg, time < 10 hr, route oral; settings: in vivo
[9] = Cmax in SCID mouse at 15 mg/kg, po measured upto 24 hrs by LC/MS-MS analysis; format: ADME, organism-based; design: dose 15 mg/kg, route oral; settings: in vivo
[10] = Kinetic solubility in HEPES buffer containing 5% DMSO at pH 8 incubated for 20 hrs by NMR analysis; format: physicochemical; settings: read-out: Kinetic_solubility
SUD4 = assay: Antiproliferative activity agianst human SUDHL4 cells assessed as growth inhibition incubated for 14 days by CellTiter Glo reagent based assay; format: functional; settings: SU-DHL-4, […]
[11] = Drug level in SCID mouse blood; format: ADME, tissue-based; settings: read-out: Ct
OCI-Ly1 = assay: Antiproliferative activity agianst human OCI-LY1 cells assessed as growth inhibition incubated for 14 days by CellTiter Glo reagent based assay
[12] = Cmax in SCID mouse at 5 mg/kg, po measured upto 24 hrs by LC/MS-MS analysis; format: ADME, organism-based; design: dose 5 mg/kg, route oral; settings: in vivo
[13] = Plasma concentration in SCID mouse; format: ADME, cell-free
in vivo [14] = settings: SCID, mouse, po, 50 mg/kg
[15] = Lipophilicity, log D of compound at pH 7.4; format: physicochemical; settings: buffer
Mus musculus [16] = assay: In vivo inhibition of BCL6 in SCID mouse xenografted with human OCI-LY1 cells assessed as reduction in BCL6 level at 15 mg/kg, po measured at 12 and 16 hrs by Western blot analysis; format: functional, organism-based
in vivo [17] = settings: SCID, mouse, po, 5 mg/kg
[18] = Kinetic solubility in PBS buffer containing 1% DMSO at pH 7.4 incubated for 2 hrs by HPLC analysis; format: physicochemical; settings: read-out: Kinetic_solubility
[19] = Toxicity in SCID mouse xenografted with human OCI-LY1 cells assessed as adverse effect at 15 mg/kg, po observed for 24 hrs; format: organism-based; settings: in vivo

## C[C@@H]1CN(c2ncc(Cl)c(Nc3ccc4c(c3)n(CCC(C)(C)O)c(=O)n4C)n2)C[C@H](C)C1(F)F
[1]
  CLH: 78 µL/min/mg
[2]
  AUC(0-t) at 10 h: 48.2 to 49.3 µM·h
[3]
  fraction unbound: 0.0007
[4]
  Cmax: 5320 to 6210 nM
[5]
  AUC(0-t) at 10 h: 11.6 to 13.1 µM·h
Mus musculus [6]
  inhibition: Active
OCI-Ly3
  GI50: 1600 nM
In vivo [7]
  Tmax at 24 h: 0.5 to 2 h
[8]
  AUC at 10 h: 47.4 to 56.3 µM·h
[9]
  Cmax: 6680 to 6930 nM
[10]
  solubility kinetic at 20 h: 11 µM (≈ 5.6 µg/mL)
SUD4
  GI50: 92 nM
[11]
  concentration: 2800 nM
OCI-Ly1
  GI50: 35 nM
[12]
  Cmax: 1870 to 2040 nM
[13]
  concentration: 1500 nM
In vivo [14]
  Tmax at 24 h: 2 to 6 h
[15]
  logD: 4.3
Mus musculus [16]
  inhibition: inactive
In vivo [17]
  Tmax at 24 h: 0.5 to 1 h
[18]
  solubility kinetic at 2 h: 8 µM (≈ 4.07 µg/mL)
[19]
  Activity: Non-Toxic
